Reference: US5026687A (priority 1990, dated 1991)
Entries after “also recorded” stand apart in the source; their conditions may differ.

Legend:
retroviral replication = details: cited from earlier work
[1] = test system: human immunodeficiency virus-associated neurological dysfunction; assay: Cognitive function in patients with HIV-associated neurological dysfunction
clinical = details: human, in vivo, iv, 3.2 mg/kg
HIV = assay: Serum HIV p24 antigen and HIV load in treated patients; format: in vivo
[2] = human, in vivo
anergic patients = assay: Cutaneous delayed type hypersensitivity reaction (skin test reactivity) of anergic patients; format: in vivo, human
[3] = test system: patients with AIDS or AIDS-related complex; assay: Clinical improvement (well being, energy, weight, duration of benefit) in treated patients; format: in vivo, human
Excerpt: Other patients had fatigue, loss of appetite, fevers, or recent weight loss. Many of these patients could not tolerate therapy with 3'-azido-2',3'-dideoxythymidine (AZT, zidovudine) because of nausea, malaise, or bone marrow toxicity, or were clinically deteriorating while on AZT treatment.

[4] = human, in vivo; remark: listed apart in the source
HIV-infected patients = assay: Combination therapy of patients with 2',3'-dideoxyinosine and other agents; format: in vivo, human
Excerpt: Examples of such therapies are disclosed in the following examples.
These two drugs are alternated in this manner about week-by-week for about one year. […] These two drugs are alternated about week-by-week for about 6 months.

[5] = test system: HIV (cytopathic effect, ATH8 T cell line); assay: Protection of ATH8 T cell line against cytopathic effect of HIV (synergy of combinations); format: cell-based, human immunodeficiency virus; details: in vitro
[6] = human, in vivo; remark: listed apart in the source
[7] = test system: patients with AIDS or AIDS-related complex; assay: Immune parameters (circulating CD4+, CD8+, total lymphocytes, CD4+:CD8+ ratio) in treated patients; format: in vivo, human
[8] = test system: patients with HIV infection; details: in vivo; cited from earlier work
HIV p24 gag production = details: with 2',3'-dideoxyinosine, T-cell line
[9] = beagle dog; previously shown; cited from earlier work
[10] = Conversion of 2',3'-dideoxyadenosine in patients; format: in vivo, human
Excerpt: In addition to the 37 patients mentioned above, another 20 patients have been treated for a total of 57.

[11] = even low doses, after patient has developed pancreatitis; cited from earlier work
[12] = with gancyclovir about 500 mg/day iv, 2 weeks
[13] = about 1 to 7 mg/kg/day intravenously then about 2 to 14 mg/kg/day orally
[14] = patients with HIV infection, intravenous or oral

## OC[C@@H]1CC[C@H](n2cnc3c(O)ncnc32)O1 [2',3'-dideoxyinosine]
Retroviral replication
  suppression of retroviral replication: known to suppress retroviral replication
[1]; 6 to 10 weeks of therapy, memory, speed and precision of doing tasks
  patients with improved cognitive function: 4 patients
[1]; intravenous or oral route
  cognitive dysfunction associated with HIV infection: an improvement in cognitive dysfunction
[1]; one patient, about 9.6 mg/kg/day orally in 3 doses, from 111, after 6 weeks
  memory quotient: 121
clinical
  Cmax: ~10 µM
  half-life: ~40 min
HIV; 35 evaluable patients
  replication of HIV: a decrease in the replication in their HIV
HIV; after about one year, about 6.4 to 9.6 mg/kg/day oral
  patients with no detectable serum HIV p24 antigen: two
HIV; by week 6, about 1 to 7 mg/kg/day iv then about 2 to 14 mg/kg/day orally, patients with detectable p24
  serum HIV p24 antigen (change): substantial decreases in their serum HIV p24 antigen
HIV; first 6 weeks, about 6.4 to 9.6 mg/kg/day orally, 3 patients with detectable p24 before therapy
  patients with decline in serum HIV p24 antigen: All 3 had a decline
HIV; intravenous or oral route
  reduction of p24 antigen detectable in serum: a reduction of the amount of p24 antigen
HIV; patients viremic in the face of AZT therapy
  serum HIV p24 antigen in patients viremic in the face of AZT: a fall in serum HIV p24 antigen
HIV; while receiving 2',3'-dideoxyinosine
  load of HIV in circulating lymphocytes by polymerase chain reaction: a decrease in the load of HIV in their circulating lymphocytes
[2]
  hepatitis after discontinuation: the hepatitis resolved
[2]; po, 6.4 mg/kg/day
  recurrence of hepatitis after restart: did not recur
Anergic patients; after approximately 6 weeks of therapy
  anergic patients developing skin test reactivity to at least one test antigen: 7 of these 23 (anergic patients
Anergic patients; some patients
  cutaneous delayed type hypersensitivity reaction of anergic patients: regained the ability to mount a cutaneous delayed type hypersensitivity reaction to at least one test antigen
[3]; 35 evaluable patients
  clinical improvement: clinical improvement
[3]; 37 patients, increase in energy, decreased sleep requirements, or increased appetite
  patients reporting an improvement in well being: approximately one half of the 37 patients
[3]; about 2 to 14 mg/kg/day orally with buffers or antacid
  patients in whom the beneficial changes were seen: nearly all of the patients
[3]; about 2 to about 14 mg/kg/day orally with antiacids or buffers
  persistence of clinical improvements: can persist over at least a year's period of time
[3]; first 6 weeks of therapy
  average weight gain: 1.5 kg
[3]; intravenous or oral route
  energy (change): an increase in energy
  weight (change): an increase in weight
[4]
  cumulative dose exceeded without neuropathy appearing: > 1.5 gm/kg
  neuropathy after prompt stopping in warning phase: the neuropathy subsided
Chronic oral administration in a given person
  oral absorption and pharmacokinetics on chronic administration: remain fairly constant
oral, patient not in a fasting state
  oral absorption, non-fasting: effectively absorbed
HIV-infected patients; AZT 300 mg/day with ddI 3.2 mg/kg/day, or AZT 600 mg/day alternating weekly with ddI 6.4 mg/kg/day, about one year
  outcome of combination with AZT: Beneficial effects are seen
HIV-infected patients; ddC 0.015 mg/kg/day with ddI 3.2 mg/kg/day, or ddC 0.03 mg/day alternating weekly with ddI 6.4 mg/kg/day, about 6 months
  outcome of combination with ddC: Beneficial effects are seen
HIV-infected patients; ddI 3.2 mg/kg/day orally, ribavirin 100 to 2400 mg/day orally, about 6 months
  outcome of combination with ribavirin: Beneficial effects are seen
HIV-infected patients; ddI 4.8 mg/kg/day iv 2 weeks then 9.6 mg/kg/day orally 56 weeks, 300 mg pentamidine isothionate inhaled monthly
  clinical course with pentamidine prophylaxis: clinically did well
HIV-infected patients; ddI 6.4 mg/kg/day orally, dextran sulfate 2700 mg/day iv, about 6 months
  outcome of combination with dextran sulfate: Beneficial effects are seen
HIV-infected patients; ddI 6.4 mg/kg/day orally, rCD4 300 μg/kg/day iv, 1 year
  outcome of combination with rCD4: Beneficial effects are seen
HIV-infected patients; ddI 1 to 14 mg/kg/day orally with 0.5 to 10 million units interferon alpha daily, about 3 months, Kaposi's sarcoma
  outcome of combination with interferon alpha: Beneficial effects are seen
HIV-infected patients; ddI 1 to 14 mg/kg/day orally with 25,000 to 1 million U/day IL-2, about 3 months
  outcome of combination with IL-2: Beneficial effects are seen
HIV-infected patients; with 300 mg pentamidine isothionate inhaled monthly, about 56 weeks
  development of Pneumocystis carinii pneumonia: did not develop Pneumocystis carinii pneumonia
HIV-infected patients; with acyclovir 4800 mg/day, 4 weeks
  recurrence of cytomegalovirus retinitis: the retinitis has not recurred
HIV-infected patients; [12]
  increase in weight: about 2.2 kg
  recurrence of cytomegalovirus retinitis: has not had a recurrence of the retinitis
HIV-infected patients; with gancyclovir about 500 mg/day iv, ddI 6.4 mg/kg/day orally, 2 weeks
  patient's report: reports feeling better
[5]; with dextran sulfate
  synergy with dextran sulfate, protection of ATH8 against cytopathic effect of HIV: synergistic
[6]
  pancreatitis: can definitely cause pancreatitis
  time for amylase to return to about normal: about one
[6]; 6.4 mg/kg/day
  evidence of pancreatitis after restart: no evidence of pancreatitis
[6]; po, 6.4 mg/kg/day
  recurrence of pancreatitis after restart: did not recur
  serum amylase after restart: 80 U/liter
[6]; po, 9.6 mg/kg/day
  clinical symptoms of pancreatitis: no clinical symptoms of pancreatitis
[7]; 3.2 to 4.8 mg/kg/day iv about 2 weeks, then about 6.4 to 9.6 mg/kg/day orally, about one year
  patients still having increases in circulating CD4+ lymphocytes: 4 of the first 7 patients
[7]; [13]
  number of circulating CD4+ lymphocytes (change): substantial increases in the number of circulating CD4+ lymphocytes
  number of circulating CD8+ lymphocytes (change): increases in the number of circulating CD8+ lymphocytes
  number of circulating total lymphocytes (change): increases in the number of circulating total lymphocytes
[7]; about 2 to 14 mg/kg/day orally after intravenous, within about
  time within which lymphocyte changes were observed: ≤ 2 weeks
[7]; below 2 mg/kg/day orally
  immune parameters improvement: not as consistently seen
[7]; in many cases, about 2 to 14 mg/kg/day orally
  duration of lymphocyte changes: at least one
[7]; intravenous or oral route, long periods of time
  immune function: improvement in immune function
[7]; more than 14 mg/kg/day orally, some patients
  immune parameters improvement: improvements in immune parameters
[7]; one patient, baseline about 31, 1.6 mg/kg/day iv about 2 weeks, then oral 3.2 (10 weeks), 4.8 (21 weeks), 9.6 mg/kg/day (31 weeks)
  CD4+ lymphocytes after treatment: about 90 CD4+ lymphocytes/mm^3
[7]; patients who had previously received 4 months or less of AZT
  CD4+ increases by prior AZT therapy: most consistently seen
[7]; [14]
  number of circulating CD4+ lymphocytes (change): an increase in the number of circulating CD4+ lymphocytes; also recorded: increases in their circulating CD4+ cells
  number of circulating CD8+ lymphocytes (change): an increase in the number of CD8+ lymphocytes; also recorded: increases in the number of CD8+ lymphocytes
  number of circulating total lymphocytes (change): an increase in the number of circulating total lymphocytes; also recorded: increases in the number of total lymphocytes
[7]; same first patient, baseline 189
  CD8+ lymphocytes after treatment: about 302 CD8+ lymphocytes/mm^3
[7]; same first patient, baseline 405
  total lymphocytes after treatment: about 816 total lymphocytes/mm^3
[7]; second patient, baseline 844, about one year
  CD8+ lymphocytes after treatment: about 1256 CD8+ lymphocytes/mm^3
[7]; second patient, baseline 1270, about one year
  total lymphocytes after treatment: about 1794 total lymphocytes/mm^3
[7]; second patient, baseline about 219, 4.8 mg/kg/day iv about 2 weeks then 9.6 mg/kg/day oral, about one year
  CD4+ lymphocytes after treatment: about 359 CD4+ lymphocytes/mm^3

## Cc1cn([C@H]2C[C@H](N=[N+]=[N-])[C@@H](CO)O2)c(=O)[nH]c1=O [AZT, 3'-azido-2',3'-dideoxythymidine]
[8]
  hepatic dysfunction: can cause hepatic dysfunction
  pancreatitis or peripheral neuropathy: not known to cause pancreatitis or a peripheral neuropathy
  toxicities and side effects: anemia, other bone marrow suppression, and certain other toxicities such as myositis (muscle destruction or inflammation), headaches, nausea, vomiting, malaise, or seizures
[5]
  synergy with 2',3'-dideoxyinosine, protection of ATH8 against cytopathic effect of HIV: synergistic

## NC(=O)c1ncn([C@@H]2O[C@H](CO)[C@@H](O)[C@H]2O)n1 [Ribavirin]
HIV p24 gag production
  effect on the anti-HIV effect of 2',3'-dideoxyinosine (HIV p24 gag production): induce enhancement of the anti-HIV effect

## Nc1ncnc2c1ncn2[C@H]1CC[C@@H](CO)O1 [2',3'-dideoxyadenosine]
[9]
  oral bioavailability: can be orally bioavailable
[10]
  conversion to 2',3'-dideoxyinosine: rapidly converted to 2',3'-dideoxyinosine

## Nc1ccn([C@H]2CC[C@@H](CO)O2)c(=O)n1 [2',3'-Dideoxycytidine]
[5]
  synergy with 2',3'-dideoxyinosine, protection of ATH8 against cytopathic effect of HIV: synergistic

## Sc1ncnc2nc[nH]c12 [6-mercaptopurine]
[11]
  pancreatitis on re-administration: causes pancreatitis that returns acutely
